Assay results reported in US6943924B2, “Apparatus and method for digital holographic imaging” (Ecole Polytechnique Federale de Lausanne (EPFL), priority 2001, dated 2005).

Test system: cultured mouse cortical neurons
Assay: Digital holographic imaging (DHI) of glutamate-mediated morphological changes (phase/OPL signal) in neurons
Format: cell-based
From the text: FIG. 3 presents an example of application of the present invention to image living cells in culture enclosed in a perfusion chamber 30 filled with a physiological solution 37. […] A CCD camera 35 records the hologram. The hologram is produced by the interference with a reference wave 36. A numerical procedure is then applied to reconstruct the hologram. The obtained phase-contrast image can be presented in 3D perspective, as presented for example in FIG. 4d.
From the quantitative phase-contrast image, quantitative data about the cell morphology can be obtained. The refractive index, at the wavelength of 633 nm, of the perfused solution nm=1.3336±0.0002, was measured with an Abbe refractometer. By assuming, in first approximation, a constant and homogeneous cellular refractive index ns=1.365, one can estimate that an phase of 10 degree corresponds to a cellular thickness d=0.6 μm. Using this relation between phase and thickness, phase measurements extracted from specific pixels of the quantitative phase-contrast image presented FIG. 3c, yields a thickness of 1-3 μm for the neuronal processes and of approximately 8 μm for the cell body. Even with the assumption of a homogeneous distribution of intracellular refractive index (which can be discussed given a certain degree of heterogeneity of its constituents), these estimations of cell morphology give realistic values of typical cell dimensions as described in the literature for the mouse cortical neurons presented here. Using the same assumption for refractive index of the cell, and based on a phase measurement accuracy of 0.7 degree, that is dictated by experimental opto-mechanical noise, we obtain an axial (or vertical) resolution of 40 nanometers.
As an example of application of the present invention, the present invention has been applied to study the effects of an excitatory neurotransmitter (glutamate) on the morphology of cultured mouse cortical neurons. The influence of glutamate on neuron morphology has been already described as resulting from excitotoxicity, for high concentrations (20-500 μM) and long exposures of several minutes. […] It has also been established that this effect occurs in response to the activation of N-methyl-D-aspartate (NMDA) receptors. FIG. 4a presents the temporal evolution of the phase signal measured, in real-time by DHI, in the domain delimited by a black rectangle in FIG. 4b, which presents a typical example of a quantitative phase contrast image of a living mouse cortical neuron immersed in a physiological solution. […] These pulses of pharmacological agents are indicated by black triangles in FIG. 4a. […] The concentrations of GLUT, are respectively 15 μM, 10 μM, 15 μM and 20 μM. At instants indicated by black triangles 45 and 46, 400 μM of kynurenate (KYN), a broad spectrum ionotropic glutamate receptor antagonist, has been added to GLUT. […] These OPL increases could be reproduced several times over periods of more than three hours. […] A concentration-response curve (FIG. 4c) has been established on the basis of 5 different experiments. As response amplitudes vary from cell to cell, results were normalized with respect to the maximal response which occurred at a concentration of ˜15 μM. […] Without glycine cells started to respond at glutamate concentrations higher than 15 μM and for only ˜25% of cells (vs. ˜80% in the presence of glycine). As glycine is an NMDA receptor co-agonist, this behavior further emphasizes the role these receptors in the glutamate-evoked responses. The maximum amplitude of a typical phase increase is ˜10 degree representing ˜5% of the initial cellular phase. If we assume once again a constant cellular refractive index (ns=1.365), this corresponds to an increase in the vertical (z) axis of ˜0.6 μm.

O=C(O)c1cc(=O)c2ccccc2[nH]1 [KYN, kynurenate]
effect on glutamate-evoked phase signal (400 μM added to GLUT): No increase of the phase signal occurs

C[C@]12N[C@H](Cc3ccccc31)c1ccccc12 [MK-801]
effect on glutamate-evoked phase signal (5 μM added to GLUT): inhibited

N[C@@H](CCC(=O)O)C(=O)O [glutamate]
maximum amplitude of a typical phase increase: ~10 degree | maximum phase increase as share of the initial cellular phase: ~5% | EC50 (20 seconds pulses, glycine (3 μM) in perfusion solutions, 5 different experiments, normalized to maximal response, read-out: EC50 of glutamate-evoked phase response (Hill equation fit of concentration-response curve)): ~7.5 µM | phase signal on application alone (GLUT 15, 10, 15 and 20 μM pulses of 20 seconds): Marked phase increases | increase in the vertical (z) axis (assuming constant cellular refractive index ns=1.365): ~0.6 μm | Hill coefficient (concentration-response curve, glycine (3 μM) present): 3.75±0.4 | concentration at which the maximal response occurred (glycine (3 μM) present): ~15 µM | cells responding (in the presence of glycine): ~80% | cells responding (without glycine): ~25% | glutamate concentration at which cells started to respond (without glycine): higher than 15 μM
